Results on 18 compounds are retold here after patent US10077271B2, “Methods and compositions for inhibiting the interaction of menin with MLL proteins” (Kura Oncology, Inc., priority 2015, dated 2018).

This test addresses T1, Menin MLL 4-43 (Homo sapiens, UniProt O00255).
T1 construct: 6His
T1 sequence (O00255 1-610): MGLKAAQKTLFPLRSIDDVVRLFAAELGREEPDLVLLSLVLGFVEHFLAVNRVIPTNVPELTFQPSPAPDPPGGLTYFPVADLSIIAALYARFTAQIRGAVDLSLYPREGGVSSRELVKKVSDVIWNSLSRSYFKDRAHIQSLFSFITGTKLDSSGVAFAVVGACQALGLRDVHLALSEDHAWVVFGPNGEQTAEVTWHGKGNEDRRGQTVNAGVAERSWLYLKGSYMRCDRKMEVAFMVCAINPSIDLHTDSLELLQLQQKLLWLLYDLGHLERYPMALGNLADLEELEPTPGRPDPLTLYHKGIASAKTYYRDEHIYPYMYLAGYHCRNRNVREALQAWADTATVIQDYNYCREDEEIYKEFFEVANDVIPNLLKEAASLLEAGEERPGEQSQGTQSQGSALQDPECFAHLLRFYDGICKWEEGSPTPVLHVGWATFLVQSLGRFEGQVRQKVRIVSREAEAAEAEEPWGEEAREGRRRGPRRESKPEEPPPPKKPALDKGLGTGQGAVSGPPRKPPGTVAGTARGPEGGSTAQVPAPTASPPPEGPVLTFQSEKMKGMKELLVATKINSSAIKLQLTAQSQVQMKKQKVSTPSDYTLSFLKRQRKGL
The test is described as follows: Inhibition of the menin-MLL interaction (Menin MLL 4-43 IC50). It is filed as binding. An excerpt:
This example illustrates an assay effective in monitoring the binding of MLL to menin. […] A fluorescein-labeled peptide containing the high affinity menin binding motif found in MLL is produced according to Yokoyama et al. (Cell, 2005, 123(2): 207-218), herein incorporated by reference in its entirety. Binding of the labeled peptide (1.7 kDa) to the much larger menin (˜67 kDa) is accompanied by a significant change in the rotational correlation time of the fluorophore, resulting in a substantial increase in the fluorescence polarization and fluorescence anisotropy (excitation at 500 nm, emission at 525 nm).
A homogeneous time-resolve fluorescence (HTRF) assay is utilized as a secondary assay to confirm the results of the FP assay. In some embodiments, the HTRF assay is the primary assay and the FP assay is used as a secondary assay to confirm results. HTRF is based on the non-radiative energy transfer of the long-lived emission from the Europium cryptate (Eu^3+-cryptate) donor to the allophycocyanin (XL665) acceptor, combined with time-resolved detection. An Eu^3+-cryptate donor is conjugated with mouse anti-6His monoclonal antibody (which binds His-tagged menin) and XL665-acceptor is conjugate to streptavidin (which binds biotinylated MLL peptide). When these two fluorophores are brought together by the interaction of menin with the MLL peptide, energy transfer to the acceptor results in an increase in fluorescence emission at 665 nm and increased HTRF ratio (emission intensity at 665 nm/emission intensity at 620 nm). Inhibition of the menin-MLL interaction separates the donor from the acceptor, resulting in a decrease in emission at 665 nm and decreased HTRF ratio.

[1] abbreviates: Formula II inhibitors of menin (Table 4G).
Where [2] appears, read: Formula IV inhibitors of menin (Table 4i).
Where [3] appears, read: Formula V inhibitors of menin (Table 4J).

The structures appear in SMILES notation. Bounds are passed on as bounds.

`Cc1nc(NC2CCN(Cc3ccc4c(cc(C#N)n4Cc4cn[nH]c4)c3C)CC2)c2cc(CC(F)(F)F)sc2n1` [II-10]: the 50% inhibitory concentration (IC50) – broadly, the concentration that inhibits the measured activity by half – under setting [1] is not above 100 nM. `Cc1c(CN2CCC(Nc3nc(C#N)nc4sc(CC(F)(F)F)cc34)CC2)ccc2c1cc(C#N)n2Cc1cn[nH]c1` [II-14]: the IC50 under setting [1] lay within 1000 to 10000 nM. `C=CC(=O)Nc1ccc(CCC2C(C#N)=Cc3c2ccc(CN2CCC(Nc4nc(N)nc5sc(CC(F)(F)F)cc45)CC2)c3C)cn1` (stereo not drawn) [II-19] returned an IC50 under setting [1] of 100 to 1000 nM. Same read-out and setting: the figure for `Cc1c(CN2CCC(Nc3nc(C(F)(F)F)nc4sc(CC(F)(F)F)cc34)CC2)ccc2[nH]c(C#N)cc12` [II-11] is 100 to 1000 nM; for `Cc1c(CN2CCC(Nc3nc(Cl)nc4sc(CC(F)(F)F)cc34)CC2)ccc2[nH]c(C#N)cc12` [II-7] it is more than 10000 nM. Under setting [1], `Cc1c(CN2CCC(Nc3nc(C(F)F)nc4sc(CC(F)(F)F)cc34)CC2)ccc2c1cc(C#N)n2Cc1cn[nH]c1` [II-18] showed an IC50 of more than 10000 nM.

Take `C=Cc1nc(NC2CCN(Cc3ccc4[nH]c(C#N)cc4c3C)CC2)c2cc(CC(F)(F)F)sc2n1` [II-15]: the IC50 under setting [1] was in the range of 100 to 1000 nM. In the case of `Cc1c(CN2CCC(Nc3nc(N)nc4sc(CC(F)(F)F)cc34)CC2)ccc2c1cc(C#N)n2Cc1cc[nH]n1` [II-16], under setting [1], the IC50 is 100 to 1000 nM.

Under setting [2], `Cc1c(CN2CCC(Nc3ncnc4sc(CC(F)(F)F)cc34)CC2)ccc2[nH]ncc12` [IV-9] returned an IC50 of 1000 to 10000 nM. Under setting [3], `Cc1c(CN2CC(Nc3ncnc4sc(CC(F)(F)F)cc34)C2)ccc2[nH]c(C#N)cc12` [Compound V-13] displayed an IC50 of more than 10000 nM. As for `Cc1c(CN2CCC(Nc3ncnc4sc(CC(F)(F)F)cc34)CC2)cnc2[nH]c(C#N)cc12` [IV-2], under setting [2], the IC50 was more than 10000 nM. The compound `Cc1c(CN2CCC(Nc3nc(N)nc4sc(CC(F)(F)F)cc34)CC2)ccc2[nH]c(C#N)cc12` [II-3] yielded an IC50 under setting [1] not above 100 nM. In the case of `Cc1c(CN2CCC(Nc3ncnc4sc(CC(F)(F)F)cc34)C(F)(F)C2)ccc2[nH]c(C#N)cc12` (stereo not drawn) [III-3], the IC50 (Formula III inhibitors of menin (Table 4h)) was more than 10000 nM. In turn, `Cc1c(CN2CCC(Nc3nc(N)nc4sc(CC(F)(F)F)cc34)CC2)ccc2c1cc(C#N)n2Cc1cn[nH]c1` [II-4] gave an IC50 under setting [1] not above 100 nM. Compound `Cc1c(CN2CCN(C(=O)c3ncnc4sc(CC(F)(F)F)cc34)CC2)ccc2[nH]c(C#N)cc12` [Compound V-3] displayed an IC50 under setting [3] of more than 10000 nM. On to `C#Cc1nc(NC2CCN(Cc3ccc4c(cc(C#N)n4Cc4cn[nH]c4)c3C)CC2)c2cc(CC(F)(F)F)sc2n1` [II-17], for which, under setting [1], the IC50 is more than 10000 nM. Consider `Cc1c(CN2CCC(Nc3ncnc4sc(CC(F)(F)F)cc34)C2)ccc2[nH]c(C#N)cc12` (stereo not drawn) [Compound V-15], for which the IC50 under setting [3] was more than 10000 nM. `FC(F)(F)Cc1cc2c(NC3CCN(Cc4ccc5[nH]ncc5c4)CC3)ncnc2s1` [IV-8] came in with an IC50 under setting [2] of 100 to 1000 nM.
